The values below are quoted from earlier work in US20240189323A1, “PREPARATION FOR ETHINYLESTRADIOL-CYCLODEXTRIN COMPLEX AND USE THEREOF” (NATIONAL RESEARCH INSTITUTE FOR FAMILY PLANNING, priority 2022, published 2024).

The conditions of the series: background description.

With `C#C[C@]1(O)CC[C@H]2[C@@H]3CCc4cc(O)ccc4[C@H]3CC[C@@]21C` [ethinylestradiol, 3-hydroxy-19-nor-17α-pregna-1,3,5(10)-trien-20-yn-17-ol], the solubility in water entry is “almost insoluble in water”.
